Among the data in patent US20230293517A1, “ANTAGONIST COMPOUNDS” (AdoRx Therapeutics Limited, priority 2020, published 2023) are Ki values, retold here.

Experiment [1] concerns the target human Adenosine A2b receptor (Homo sapiens (Human), UniProt P29275). Briefly: Adenosine receptor TR-FRET binding assay (A2b). To be noted: TR-FRET, inhibition of binding of 30 nM CA200645, CHO cell membranes. The essentials:
(§1)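 CHO membranes, Tb-labelled hA1/hA2a/hA2b/hA3; tracer CA200645 at 100 nM (A1, A2a, A3) or 30 nM (A2b); buffer with saponin, 1% DMSO, pluronic; 2 h RT. NSB with 10 μM XAC. Read TR-FRET (ex 337, em 620/665 nm); IC50 → Ki via Cheng–Prusoff.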

The target of experiment [2] is human Adenosine A2a receptor (Homo sapiens (Human), UniProt P29274). Put plainly: Adenosine receptor TR-FRET binding assay (A2a). The conditions noted are these: inhibition of binding of 100 nM CA200645, CHO cell membranes. The gist of the method: as §1
Experiment [3] addresses human Adenosine A3 receptor (Homo sapiens (Human), UniProt P0DMS8). Briefly: Adenosine receptor TR-FRET binding assay (A3). To be noted: inhibition of binding of 100 nM CA200645, CHO cell membranes. The gist of the method: as §1
In experiment [4] the target is human Adenosine A1 receptor (Homo sapiens (Human), UniProt P30542). Briefly: Adenosine receptor TR-FRET binding assay (A1). To be noted: inhibition of binding of 100 nM CA200645, CHO cell membranes. The essentials: as §1
Chain of human Adenosine A1 receptor (P30542 whole entry): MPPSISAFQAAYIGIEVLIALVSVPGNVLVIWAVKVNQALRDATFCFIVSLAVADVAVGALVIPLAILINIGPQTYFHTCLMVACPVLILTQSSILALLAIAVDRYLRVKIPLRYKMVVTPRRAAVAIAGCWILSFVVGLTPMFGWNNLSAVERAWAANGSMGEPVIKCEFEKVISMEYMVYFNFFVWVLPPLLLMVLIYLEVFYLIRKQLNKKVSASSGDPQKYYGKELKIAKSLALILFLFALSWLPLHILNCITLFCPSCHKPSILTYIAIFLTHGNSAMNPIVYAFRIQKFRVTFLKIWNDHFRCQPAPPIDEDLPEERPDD

Chain of human Adenosine A3 receptor (P0DMS8 whole entry): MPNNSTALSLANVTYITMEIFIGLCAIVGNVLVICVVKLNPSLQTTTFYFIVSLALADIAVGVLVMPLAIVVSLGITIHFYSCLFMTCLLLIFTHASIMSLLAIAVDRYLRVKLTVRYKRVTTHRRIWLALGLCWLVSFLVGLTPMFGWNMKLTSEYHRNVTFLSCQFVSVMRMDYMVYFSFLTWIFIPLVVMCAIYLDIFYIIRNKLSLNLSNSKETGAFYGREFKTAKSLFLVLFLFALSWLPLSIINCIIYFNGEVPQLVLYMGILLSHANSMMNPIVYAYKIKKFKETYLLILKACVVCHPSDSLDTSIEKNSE
Chain of human Adenosine A2a receptor (P29274 whole entry): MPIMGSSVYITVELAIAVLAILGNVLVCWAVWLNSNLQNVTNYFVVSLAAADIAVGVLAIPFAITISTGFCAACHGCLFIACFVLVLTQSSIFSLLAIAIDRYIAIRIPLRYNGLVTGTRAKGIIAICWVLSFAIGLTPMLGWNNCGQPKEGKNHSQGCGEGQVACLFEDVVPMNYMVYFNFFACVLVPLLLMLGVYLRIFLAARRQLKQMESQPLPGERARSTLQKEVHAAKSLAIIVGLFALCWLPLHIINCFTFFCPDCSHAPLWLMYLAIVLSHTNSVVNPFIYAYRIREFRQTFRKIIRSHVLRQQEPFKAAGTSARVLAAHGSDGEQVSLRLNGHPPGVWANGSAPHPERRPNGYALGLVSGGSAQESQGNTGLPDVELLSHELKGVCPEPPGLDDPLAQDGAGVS
Chain of human Adenosine A2b receptor (P29275 whole entry): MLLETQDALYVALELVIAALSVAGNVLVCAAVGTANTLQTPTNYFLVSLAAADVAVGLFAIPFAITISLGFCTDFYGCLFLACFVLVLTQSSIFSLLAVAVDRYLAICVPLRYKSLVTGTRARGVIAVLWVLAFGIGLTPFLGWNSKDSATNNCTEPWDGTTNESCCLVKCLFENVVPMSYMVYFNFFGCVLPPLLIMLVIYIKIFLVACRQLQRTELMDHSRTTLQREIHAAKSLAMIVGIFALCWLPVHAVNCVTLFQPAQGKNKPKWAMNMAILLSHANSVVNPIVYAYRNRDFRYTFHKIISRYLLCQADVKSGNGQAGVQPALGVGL

For the molecule `Cc1cc(-c2sc(NC(=O)N3CCC(C)(C#N)C3)nc2-c2cccc(C#N)c2)cc(C2COC2)n1` (stereo not shown) [Example 6.110, 3-Cyano-N-[4-(3-cyanophenyl)-5-[2-methyl-6-(oxetan-3-yl)-4-pyridyl]thiazol-2-yl]-3-methyl-pyrrolidine-1-carboxamide], the Ki was determined as 3.6 nM in experiment [1], 0.26 nM in experiment [2], 956 nM in experiment [3] and 13 nM in experiment [4].

Turning to `Cc1cc(-c2sc(NC(=O)N3CCC(N)(C#N)CC3)nc2-c2cccc(C#N)c2)cc(C)n1` [Example 7.2, 4-Amino-4-cyano-N-[4-(3-cyanophenyl)-5-(2,6-dimethyl-4-pyridyl)thiazol-2-yl]piperidine-1-carboxamide], the inhibition constant Ki turned out to be 1 nM in experiment [1], 0.2 nM in experiment [2], 337 nM in experiment [3] and 8 nM in experiment [4].

For the molecule `CC(=O)N=S1(=O)CCN(C(=O)Nc2nc(-c3cccc(C#N)c3)c(-c3cc(C)nc(C)c3)s2)CC1` [Example 8, 1-Acetylimino-N-[4-(3-cyanophenyl)-5-(2,6-dimethyl-4-pyridyl)thiazol-2-yl]-1-oxo-1,4-thiazinane-4-carboxamide], the Ki is 1.8 nM in experiment [1], 1.83 nM in experiment [2], 776 nM in experiment [3] and 59 nM in experiment [4].

As for `Cc1cc(-c2sc(NC(=O)N3CC4(COC4)C3)nc2-c2cccc(C#N)c2)cc(CO)n1` [Example 9, N-[4-(3-Cyanophenyl)-5-[2-(hydroxymethyl)-6-methyl-4-pyridyl]thiazol-2-yl]-2-oxa-6-azaspiro[3.3]heptane-6-carboxamide], the inhibition constant Ki is 5.3 nM in experiment [1], 0.61 nM in experiment [2], 2020 nM in experiment [3] and 47 nM in experiment [4].

As to `Cc1cc(-c2sc(NC(=O)N3CCC4(CC3)CNC4=O)nc2-c2cccc(C#N)c2)cc(CO)n1` [Example 9.1], the Ki in experiment [1] was 7 nM; in experiment [2], 0.78 nM; in experiment [3], 1000 nM; in experiment [4] it was 95 nM.

For `Cc1cc(-c2sc(NC(=O)N3CC[S+]([O-])CC3)nc2-c2cccc(C#N)c2)cc(CO)n1` [Example 9.3], the inhibition constant Ki in experiment [1] was 8.1 nM; in experiment [2], 1.11 nM; in experiment [3] it was 1510 nM; in experiment [4], 29 nM.

Consider `Cc1cc(-c2sc(NC(=O)N3CCN(C4COC4)CC3)nc2-c2cccc(C#N)c2)cc(CO)n1` [Example 9.4], for which the inhibition constant (Ki) amounted to 20.1 nM in experiment [1], 4.19 nM in experiment [2], 1540 nM in experiment [3] and 410 nM in experiment [4].

On to `Cc1cc(-c2sc(NC(=O)N3CCC4(CC3)C(=O)N(C)C(=O)N4C)nc2-c2cccc(C#N)c2)cc(CO)n1` [Example 9.5], for which the Ki in experiment [1] turned out to be 7.5 nM; in experiment [2] it was 2.28 nM; in experiment [3], 699 nM; in experiment [4], 174 nM.

Take `Cc1cc(-c2sc(NC(=O)N3CCC(C#N)CC3)nc2-c2cccc(C#N)c2)cc(CO)n1` [Example 9.6]: the Ki in experiment [1] was determined as 2.9 nM; in experiment [2] it was 0.51 nM; in experiment [3] it was 369 nM; in experiment [4], 12 nM.

In the case of `Cc1cc(-c2sc(NC(=O)N3CC4(CCOC4)C3)nc2-c2cccc(C#N)c2)cc(C(C)(C)O)n1` [Example 12.1, N-[4-(3-Cyanophenyl)-5-[2-(1-hydroxy-1-methyl-ethyl)-6-methyl-4-pyridyl]thiazol-2-yl]-6-oxa-2-azaspiro[3.4]octane-2-carboxamide], the Ki in experiment [1] was 3.1 nM; in experiment [2], 0.2 nM; in experiment [3] it was 1240 nM; in experiment [4] it was 7 nM.

Take `Cc1cc(-c2sc(NC(=O)N3CCNC[C@@H]3C)nc2-c2cccc(C#N)c2)cc(C)n1` [Example 13.4, (2S)-N-[4-(3-Cyanophenyl)-5-(2,6-dimethyl-4-pyridyl)thiazol-2-yl]-2-methyl-piperazine-1-carboxamide]: the Ki is 19.6 nM in experiment [1], 5.13 nM in experiment [2], 54 nM in experiment [3] and 54 nM in experiment [4].

Consider `Cc1cc(-c2sc(NC(=O)N3CCNC[C@@H]3CO)nc2-c2cccc(C#N)c2)cc(C)n1` [Example 13.5, (2R)-N-[4-(3-Cyanophenyl)-5-(2,6-dimethyl-4-pyridyl)thiazol-2-yl]-2-(hydroxymethyl)piperazine-1-carboxamide], for which the Ki was found to be 18.8 nM in experiment [1], 9.87 nM in experiment [2], 226 nM in experiment [3] and 84 nM in experiment [4].

With `Cc1cc(-c2sc(NC(=O)N3CCNC[C@H]3CO)nc2-c2cccc(C#N)c2)cc(C)n1` [Example 13.6, (2S)-N-[4-(3-Cyanophenyl)-5-(2,6-dimethyl-4-pyridyl)thiazol-2-yl]-2-(hydroxymethyl)piperazine-1-carboxamide], the Ki was found to be 79.7 nM in experiment [1], 16.8 nM in experiment [2], 133 nM in experiment [3] and 220 nM in experiment [4].

`Cc1cc(-c2sc(NC(=O)N3CC4CC(C3)N4)nc2-c2cccc(C#N)c2)cc(C)n1` [Example 13.7, N-[4-(3-Cyanophenyl)-5-(2,6-dimethyl-4-pyridyl)thiazol-2-yl]-3,6-diazabicyclo[3.1.1]heptane-3-carboxamide]: the inhibition constant Ki worked out at 13.7 nM in experiment [1], 7.46 nM in experiment [2], 256 nM in experiment [3] and 174 nM in experiment [4].

Take `Cc1cc(-c2sc(NC(=O)N3CCNC[C@H]3C)nc2-c2cccc(C#N)c2)cc(C)n1` [Example 13.8, (2R)-N-[4-(3-Cyanophenyl)-5-(2,6-dimethyl-4-pyridyl)thiazol-2-yl]-2-methyl-piperazine-1-carboxamide]: the Ki was found to be 12.3 nM in experiment [1], 2.38 nM in experiment [2], 41 nM in experiment [3] and 47 nM in experiment [4].

Take `Cc1cc(-c2sc(NC(=O)N3CCC4(COCCN4)C3)nc2-c2cccc(C#N)c2)cc(C)n1` (stereo not shown) [Example 13.9]: the Ki in experiment [1] was 14.9 nM; in experiment [2], 2.01 nM; in experiment [3], 646 nM; in experiment [4], 225 nM.

For `Cc1cc(-c2sc(NC(=O)N3CCN[C@H](C(F)(F)F)C3)nc2-c2cccc(C#N)c2)cc(C)n1` [Example 13.10, (3S)-N-[4-(3-Cyanophenyl)-5-(2,6-dimethyl-4-pyridyl)thiazol-2-yl]-3-(trifluoromethyl)piperazine-1-carboxamide], the Ki stood at 14.5 nM in experiment [1], 4.56 nM in experiment [2], 573 nM in experiment [3] and 61 nM in experiment [4].

In the case of `Cc1cc(-c2sc(NC(=O)N3CC4CCC(C3)N4)nc2-c2cccc(C#N)c2)cc(C)n1` [Example 13.11, N-[4-(3-Cyanophenyl)-5-(2,6-dimethyl-4-pyridyl)thiazol-2-yl]-3,8-diazabicyclo[3.2.1]octane-3-carboxamide], the Ki in experiment [1] stood at 58.4 nM; in experiment [2], 12.9 nM; in experiment [3], 226 nM; in experiment [4], 132 nM.

For the molecule `Cc1cc(-c2sc(NC(=O)N3CCN[C@H](C)C3)nc2-c2cccc(C#N)c2)cc(C(F)(F)F)n1` [Example 14, (3R)—N-[4-(3-Cyanophenyl)-5-[2-methyl-6-(trifluoromethyl)-4-pyridyl]thiazol-2-yl]-3-methyl-piperazine-1-carboxamide], the Ki in experiment [1] turned out to be 7.4 nM; in experiment [2], 2.71 nM; in experiment [3], 47 nM; in experiment [4], 45 nM.
